The target in data set [1] is Serine/threonine-protein kinase PLK2 (Homo sapiens, UniProt Q9NYY3). In words: Inhibition of PLK2.
The target in data set [2] is Serine/threonine-protein kinase PLK3 (Homo sapiens, UniProt Q9H4B4). Kind of data set: Inhibition of PLK3.
Data set [3] can be described thus: Solubility of the compound at pH 7. Type of data set: physicochemical. The settings on record: buffer.
For data set [4], the target named is Cyclin-dependent kinase 2/cyclin A (Homo sapiens, UniProt P24941). In words: Inhibition of CDK2/Cyclin A. Type of data set: protein-complex assay.
Data set [5] is described as follows: Intrinsic clearance in human liver microsomes. Type of data set: ADME, Microsome. A general note: Liver microsomes are a subcellular fraction often used to study metabolism.
Data set [6] in a line: Clearance in CD1 mouse at 10 mg/kg, iv administered as single dose by LC/MS/MS analysis. The settings on record: in vivo. The arrangement: dose 10 mg/kg, route intravenous. Type of data set: ADME, organism-based.
A short description of data set [7]: Cmax in CD1 mouse at 10 mg/kg, po administered as single dose by LC/MS/MS analysis. The arrangement: dose 10 mg/kg, route oral. Type of data set: ADME, organism-based. Conditions: in vivo.
The nature of data set [8]: AUC (0 to infinity) in CD1 mouse at 10 mg/kg, po administered as single dose by LC/MS/MS analysis. Also on record: time infinity, dose 10 mg/kg, route oral. Type of data set: ADME, organism-based. The settings on record: plasma.
Data set [9] concerns LoVo. In words: Antiproliferative activity against human LoVo cells after 72 hrs by CellTiter-Glo assay. Type of data set: functional, cell-based. Background: ATP-based viability assays read luminescence as a measure of living cells.
The test system of data set [10] is MIA PaCa-2. In words: Antiproliferative activity against human MIAPaCa2 cells after 72 hrs by CellTiter-Glo assay. Type of data set: functional, cell-based. The settings on record: MIA PaCa-2, 72 h.
Data set [11] deals with PANC-1. In words: Antiproliferative activity against human PANC1 cells after 72 hrs by CellTiter-Glo assay. Type of data set: functional, cell-based. Conditions: PANC-1, 72 h.
Data set [12] in a line: Antiproliferative activity against human 1A9PTX22 cells after 72 hrs by CellTiter-Glo assay. Type of data set: functional, cell-based. The settings on record: 1A9/ptx-22, 72 h.
The nature of data set [13]: Antiproliferative activity against human A2780/E6 cells after 72 hrs by CellTiter-Glo assay. Type of data set: functional, cell-based. The settings on record: A2780/E6, 72 h.
Data set [14] can be described thus: Antiproliferative activity against human KMS11 cells after 72 hrs by CellTiter-Glo assay. Type of data set: functional, cell-based. The settings on record: KMS-11, 72 h.
For data set [15], the system named is A2780. In words: Antitumor against human A2780 cells xenografted in CD1 mouse assessed as tumor growth inhibition at 30 mg/kg, iv BID administered on day 1, 2, 3 post-implantation measured on day 12. The settings on record: read-out: TGI. Type of data set: functional.
For data set [16], the system named is Mus musculus. Kind of data set: Toxicity in CD1 mouse xenografted with human A2780 cells assessed as reversible body weight loss at 30 mg/kg, iv BID administered on day 1, 2, 3 post-implantation measured on day 12. Type of data set: organism-based. Also on record: dose 30 mg/kg, route intravenous. The settings on record: in vivo. A general note: Xenograft models place foreign cells or tissue in a host animal.

Data set [17] deals with U2OS. In words: Induction of cell cycle arrest in human U2OS cells assessed as accumulation of cyclin B1-positive cells at 320 nM after 24 hrs by array scan assay.

Converted amounts (≈) assume the structure as drawn.

Sequence of Serine/threonine-protein kinase PLK3 (Q9H4B4 whole entry): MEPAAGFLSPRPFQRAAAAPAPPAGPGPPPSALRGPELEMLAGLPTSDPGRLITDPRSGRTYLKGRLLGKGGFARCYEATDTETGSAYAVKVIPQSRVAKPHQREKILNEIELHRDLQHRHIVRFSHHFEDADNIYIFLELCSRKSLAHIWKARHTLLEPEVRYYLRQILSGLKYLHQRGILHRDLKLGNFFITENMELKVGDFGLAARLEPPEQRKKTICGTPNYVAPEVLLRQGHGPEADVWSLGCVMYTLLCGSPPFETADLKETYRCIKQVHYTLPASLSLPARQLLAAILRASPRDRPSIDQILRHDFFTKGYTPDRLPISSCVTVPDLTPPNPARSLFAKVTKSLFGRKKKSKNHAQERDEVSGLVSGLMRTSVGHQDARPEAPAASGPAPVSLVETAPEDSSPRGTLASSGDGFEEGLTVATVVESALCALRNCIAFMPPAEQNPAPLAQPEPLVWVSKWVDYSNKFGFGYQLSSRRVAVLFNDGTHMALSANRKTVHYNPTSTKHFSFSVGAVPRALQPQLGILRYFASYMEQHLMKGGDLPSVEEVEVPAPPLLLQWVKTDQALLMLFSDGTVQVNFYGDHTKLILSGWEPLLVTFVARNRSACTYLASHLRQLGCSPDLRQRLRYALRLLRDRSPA
Sequence of Serine/threonine-protein kinase PLK2 (Q9NYY3 whole entry): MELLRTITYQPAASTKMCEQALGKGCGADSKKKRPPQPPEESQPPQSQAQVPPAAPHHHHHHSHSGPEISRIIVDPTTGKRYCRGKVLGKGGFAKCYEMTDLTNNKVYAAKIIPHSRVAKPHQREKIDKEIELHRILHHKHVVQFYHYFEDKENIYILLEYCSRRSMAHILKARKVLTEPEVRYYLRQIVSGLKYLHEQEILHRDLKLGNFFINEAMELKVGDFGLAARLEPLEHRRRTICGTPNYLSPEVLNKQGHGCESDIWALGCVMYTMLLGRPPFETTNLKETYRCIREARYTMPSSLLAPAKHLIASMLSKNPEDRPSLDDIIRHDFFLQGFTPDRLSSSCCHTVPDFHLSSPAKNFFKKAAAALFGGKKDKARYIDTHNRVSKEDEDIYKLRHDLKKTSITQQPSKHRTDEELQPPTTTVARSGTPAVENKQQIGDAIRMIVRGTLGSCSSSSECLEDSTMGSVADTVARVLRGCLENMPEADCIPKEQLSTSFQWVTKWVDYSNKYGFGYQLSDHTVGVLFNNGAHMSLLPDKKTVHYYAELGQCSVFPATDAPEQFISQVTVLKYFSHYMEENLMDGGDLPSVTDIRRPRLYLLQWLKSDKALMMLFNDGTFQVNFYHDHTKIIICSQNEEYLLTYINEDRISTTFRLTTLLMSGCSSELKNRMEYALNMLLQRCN

In general, IC50 refers to the midpoint of a concentration-inhibition curve. In general, solubility refers to the dissolved amount per volume that the medium holds. The CLint scaled is the rate of metabolic loss divided by the concentration. High values mean faster metabolism, low ones greater metabolic stability. As a reminder, the clearance is the volume of plasma or blood freed of the substance per unit of time. A high value points to efficient removal. As usually defined, the Cmax is the peak of the concentration-time curve. One may read the AUC(0-inf) as total exposure, with the tail of the curve extrapolated. A lower AUC(0-inf) goes with low exposure. With `CN1CCN(c2ccc(OC(F)(F)F)c(Nc3ncc4c(n3)-c3c(c(C(N)=O)nn3C)CC4)c2)CC1`, the IC50 in data set [1] is 3520 nM; in data set [2], 1440 nM; in [4], more than 10000 nM; in data set [9], 7 nM; in data set [10], 52 nM; in [11], 126 nM. Also, the half-maximal inhibitory concentration (IC50) stood at 38 nM in data set [12], 5 nM in data set [13] and 14 nM in data set [14]. Moreover, in data set [3], the solubility amounted to 72 µM (≈ 36.2 µg/mL). Besides, the CLint scaled in data set [5] came to 25.7 mL/min/kg. This molecule also gave a clearance in [6] of 70.2 mL/min/kg. The molecule also had a Cmax in [7] of 290 nM. In data set [8], this molecule showed an AUC(0-inf) of 1.04 µM·h. Besides, the inhibition in vivo at 30 mg/kg in data set [15] was found to be 74%. The Activity in [16] is given as 19%; in [17], 20%.
